Test results as given in patent US10047104B2, “Bicyclic heterocyclyl derivatives as IRAK4 inhibitors” (Aurigene Discovery Technologies Limited, priority 2014, dated 2018).
Structures can show the parent of a compound that is named as a salt.

Target: T1, recombinant IRAK-4 kinase (Homo sapiens, UniProt Q9NWZ3)
T1 construct: purchased Millipore, USA
T1 sequence (Q9NWZ3 1-460): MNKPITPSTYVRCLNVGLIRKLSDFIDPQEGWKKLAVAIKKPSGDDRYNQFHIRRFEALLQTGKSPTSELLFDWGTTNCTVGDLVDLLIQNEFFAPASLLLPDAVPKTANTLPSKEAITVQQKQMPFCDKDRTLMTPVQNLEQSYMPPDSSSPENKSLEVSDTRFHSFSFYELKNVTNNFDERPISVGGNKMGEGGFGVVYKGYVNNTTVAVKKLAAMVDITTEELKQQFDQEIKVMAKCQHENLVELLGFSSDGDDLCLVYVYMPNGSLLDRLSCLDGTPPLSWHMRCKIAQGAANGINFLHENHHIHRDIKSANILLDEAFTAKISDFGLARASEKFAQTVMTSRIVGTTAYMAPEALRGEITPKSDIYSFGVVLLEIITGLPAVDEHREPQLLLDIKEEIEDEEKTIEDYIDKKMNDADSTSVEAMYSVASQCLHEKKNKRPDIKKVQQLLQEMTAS
Assay: IRAK-4 Biochemical Assay (TR-FRET)
Conditions: 5 ng IRAK-4 kinase, 100 nM Biotin Histone H3, 20 μM ATP, 30 minutes pre-incubation, read-out: IC50 values for IRAK4 activity
Experimental: Compounds were tested for their potential to inhibit IRAK-4 enzyme in a TR-FRET assay using recombinant IRAK-4 kinase from Millipore, USA. The assay buffer was 50 mM Tris-HCl pH 7.5, 20 mM MgCl2, 1 mM EGTA, 2 mM DTT, 3 mM MnCl2 and 0.01% Tween20. 5 ng of IRAK-4 kinase was used for the assay. After pre-incubation of enzyme with test compound for 30 minutes at room temperature, a substrate mix containing 100 nM Biotin Histone H3 (Millipore, USA) and 20 μM ATP (Sigma, USA) was added and the reaction was incubated for 30 minutes. Post incubation, the reaction was stopped by the addition of stop mix containing 40 mM EDTA, 1 nM of Europium-Anti-Phospho-Histone H3 (Ser10) antibody (Perkin Elmer, USA) and 20 nM Sure Light Allophycocyanin-Streptavidin (Perkin Elmer, USA).

COc1ccc(-c2nc(C(=O)Nc3cc4sc(N5CCOCC5)nc4nc3N3CC[C@@H](O)C3)co2)cn1 [Example 78, (R)—N-(5-(3-hydroxypyrrolidin-1-yl)-2-morpholinothiazolo[4,5-b]pyridin-6-yl)-2-(6-methoxypyridin-3-yl)oxazole-4-carboxamide]
IC50: < 50 nM

N[C@H]1CCN(c2nc(C(=O)Nc3cc4oc(N5CCOCC5)nc4nc3C3CC3)co2)C1 [Example 47, (S)-2-(3-aminopyrrolidin-1-yl)-N-(5-cyclopropyl-2-morpholinooxazolo[4,5-b]pyridin-6-yl)oxazole-4-carboxamide]
IC50: < 50 nM

N[C@H]1CCN(c2nc(C(=O)Nc3cc4sc(N5CCOCC5)nc4nc3N3CCCCC3)co2)C1 [Example 66, (S)-2-(3-aminopyrrolidin-1-yl)-N-(2-morpholino-5-(piperidin-1-yl)thiazolo[4,5-b]pyridin-6-yl)oxazole-4-carboxamide]
IC50: < 50 nM

Cc1cc(-c2nc(C(=O)Nc3cc4oc(N5CCOCC5)nc4nc3N3CCN(C)CC3)co2)ccn1 [Example 25, N-(5-(4-methylpiperazin-1-yl)-2-morpholinooxazolo[4,5-b]pyridin-6-yl)-2-(2-methylpyridin-4-yl)oxazole-4-carboxamide]
IC50: < 50 nM

O=C(Nc1cc2oc(N3CCCCC3)nc2nc1N1CCCCC1)c1coc(-c2ccc(O)nc2)n1 [Example 30, N-(2,5-di(piperidin-1-yl)oxazolo[4,5-b]pyridin-6-yl)-2-(6-hydroxypyridin-3-yl)oxazole-4-carboxamide]
IC50: > 100 nM

Cc1cc(-c2nc(C(=O)Nc3cc4sc(N5CCOCC5)nc4nc3N3CCC(F)CC3)co2)ccn1 [Example 98, N-(5-(4-fluoropiperidin-1-yl)-2-morpholinothiazolo[4,5-b]pyridin-6-yl)-2-(2-methylpyridin-4-yl)oxazole-4-carboxamide]
IC50: < 50 nM

O=C(Nc1cc2sc(N3CCOCC3)nc2nc1N1CCCCC1)c1cccc(-c2cn[nH]c2)n1 [Example 21, N-(2-morpholino-5-(piperidin-1-yl)thiazolo[4,5-b]pyridin-6-yl)-6-(1H-pyrazol-4-yl)picolinamide]
IC50: < 50 nM

Cc1cc(-c2nc(C(=O)Nc3cc4sc(N5CCCCC5)nc4nc3N3CCCCC3)co2)ccn1 [Example 23, N-(2,5-di(piperidin-1-yl)thiazolo[4,5-b]pyridin-6-yl)-2-(2-methylpyridin-4-yl)oxazole-4-carboxamide]
IC50: < 50 nM

O=C(Nc1cc2oc(N3CCCCC3)nc2nc1N1CCCCC1)c1cccc(-c2cn[nH]c2)n1 [Example 4, N-(2,5-di(piperidin-1-yl)oxazolo[4,5-b]pyridin-6-yl)-6-(1H-pyrazol-4-yl)picolinamide hydrochloride]
IC50: 50 to 100 nM

COc1ccc(-c2nc(C(=O)Nc3cc4sc(N5CCOCC5)nc4nc3N3CCC(O)C3)co2)cn1 (stereo not shown) [Example 76, N-(5-(3-hydroxypyrrolidin-1-yl)-2-morpholinothiazolo[4,5-b]pyridin-6-yl)-2-(6-methoxypyridin-3-yl)oxazole-4-carboxamide]
IC50: < 50 nM

Nc1ccc(-c2cccc(C(=O)Nc3ccc4nc(N5CCOCC5)sc4n3)n2)cn1 [Example 14, 6′-amino-N-(2-morpholinothiazolo[5,4-b]pyridin-5-yl)-[2,3′-bipyridine]-6-carboxamide]
IC50: < 50 nM

Cc1cc(-c2nc(C(=O)Nc3cc4sc(N5CCOCC5)nc4nc3N3CCC[C@H](O)C3)co2)ccn1 [Example 83, (S)—N-(5-(3-hydroxypiperidin-1-yl)-2-morpholinothiazolo[4,5-b]pyridin-6-yl)-2-(2-methylpyridin-4-yl)oxazole-4-carboxamide]
IC50: < 50 nM

COc1ccc(-c2nc(C(=O)Nc3cc4oc(N5CCOCC5)nc4nc3N3CC[C@@H](O)C3)co2)cn1 [Example 105, (R)—N-(5-(3-hydroxypyrrolidin-1-yl)-2-morpholinooxazolo[4,5-b]pyridin-6-yl)-2-(6-methoxypyridin-3-yl)oxazole-4-carboxamide]
IC50: > 100 nM

Cc1cc(-c2nc(C(=O)Nc3cc4sc(N5CCCC(O)C5)nc4nc3N3CCC(F)CC3)co2)ccn1 (stereo not shown) [Example 133, N-(5-(4-fluoropiperidin-1-yl)-2-(3-hydroxypiperidin-1-yl)thiazolo[4,5-b]pyridin-6-yl)-2-(2-methylpyridin-4-yl)oxazole-4-carboxamide]
IC50: < 50 nM

Cc1cc(-c2ccc(C(=O)Nc3cc4oc(N5CCOCC5)nc4nc3N3CCC(O)CC3)o2)ccn1 [Example 114, N-(5-(4-hydroxypiperidin-1-yl)-2-morpholinooxazolo[4,5-b]pyridin-6-yl)-5-(2-methylpyridin-4-yl)furan-2-carboxamide]
IC50: < 50 nM

Cc1cc(-c2nc(C(=O)Nc3cc4oc(N5CCOCC5)nc4nc3-c3ccoc3)co2)ccn1 [Example 116, N-(5-(furan-3-yl)-2-morpholinooxazolo[4,5-b]pyridin-6-yl)-2-(2-methylpyridin-4-yl)oxazole-4-carboxamide]
IC50: < 50 nM

Cc1cc(-c2nc(C(=O)Nc3cc4sc(N5CCOCC5)nc4nc3N3CC[C@@H](O)C3)co2)ccn1 [Example 85, (R)—N-(5-(3-hydroxypyrrolidin-1-yl)-2-morpholinothiazolo[4,5-b]pyridin-6-yl)-2-(2-methylpyridin-4-yl)oxazole-4-carboxamide]
IC50: < 50 nM

Cc1cc(-c2nc(C(=O)Nc3cc4sc(N5CCCC(O)C5)nc4nc3N3CCCCC3)co2)ccn1 (stereo not shown) [Example 124, N-(2-(3-hydroxypiperidin-1-yl)-5-(piperidin-1-yl)thiazolo[4,5-b]pyridin-6-yl)-2-(2-methylpyridin-4-yl)oxazole-4-carboxamide]
IC50: < 50 nM

Cc1ncccc1-c1nc(C(=O)Nc2cc3oc(N4CCOCC4)nc3nc2N2CCCCC2)co1 [Example 32, 2-(2-methylpyridin-3-yl)-N-(2-morpholino-5-(piperidin-1-yl)oxazolo[4,5-b]pyridin-6-yl)oxazole-4-carboxamide]
IC50: < 50 nM

Cc1ncccc1-c1nc(C(=O)Nc2cc3sc(N4CCOCC4)nc3nc2N2CCCCC2)co1 [Example 54, 2-(2-methylpyridin-3-yl)-N-(2-morpholino-5-(piperidin-1-yl)thiazolo[4,5-b]pyridin-6-yl)oxazole-4-carboxamide]
IC50: < 50 nM

Nc1cc(-c2nc(C(=O)Nc3cc4sc(N5CCOCC5)nc4nc3N3CCC(F)CC3)co2)ccn1 [Example 131, 2-(2-aminopyridin-4-yl)-N-(5-(4-fluoropiperidin-1-yl)-2-morpholinothiazolo[4,5-b]pyridin-6-yl)oxazole-4-carboxamide hydrochloride]
IC50: < 50 nM

O=C(Nc1cc2sc(N3CCOCC3)nc2nc1N1CCCCC1)c1cccc(N2CC[C@H](O)C2)n1 [Example 63, (S)-6-(3-hydroxypyrrolidin-1-yl)-N-(2-morpholino-5-(piperidin-1-yl)thiazolo[4,5-b]pyridin-6-yl)picolinamide]
IC50: < 50 nM

Cc1cc(-c2ccc(C(=O)Nc3cc4oc(N5CCOCC5)nc4nc3N3CCCCC3)o2)ccn1 [Example 113, 5-(2-methylpyridin-4-yl)-N-(2-morpholino-5-(piperidin-1-yl)oxazolo[4,5-b]pyridin-6-yl)furan-2-carboxamide]
IC50: < 50 nM

Cc1cc(-c2ccc(C(=O)Nc3cc4oc(N5CCOCC5)nc4nc3N3CC[C@H](O)C3)o2)ccn1 [Example 107, (S)—N-(5-(3-hydroxypyrrolidin-1-yl)-2-morpholinooxazolo[4,5-b]pyridin-6-yl)-5-(2-methylpyridin-4-yl)furan-2-carboxamide]
IC50: > 100 nM

Nc1cc(-c2nc(C(=O)Nc3cc4sc(N5CCOCC5)nc4nc3N3CCCC(O)C3)co2)ccn1 (stereo not shown) [Example 128, 2-(2-aminopyridin-4-yl)-N-(5-(3-hydroxypiperidin-1-yl)-2-morpholinothiazolo[4,5-b]pyridin-6-yl)oxazole-4-carboxamide hydrochloride]
IC50: < 50 nM

Cn1cc(-c2cccc(C(=O)Nc3cc4oc(N5CCCCC5)nc4nc3N3CCCCC3)n2)cn1 [Example 9, N-(2,5-di(piperidin-1-yl)oxazolo[4,5-b]pyridin-6-yl)-6-(1-methyl-1H-pyrazol-4-yl)picolinamide]
IC50: 50 to 100 nM

Cc1cc(-c2nc(C(=O)Nc3cc4sc(N5CCCC(O)C5)nc4nc3N3CCC(O)CC3)co2)ccn1 (stereo not shown) [Example 126, N-(2-(3-hydroxypiperidin-1-yl)-5-(4-hydroxypiperidin-1-yl)thiazolo[4,5-b]pyridin-6-yl)-2-(2-methylpyridin-4-yl)oxazole-4-carboxamide]
IC50: < 50 nM

Nc1cc(-c2ccc(C(=O)Nc3cc4sc(N5CCOCC5)nc4nc3N3CCC(O)CC3)o2)ccn1 [Example 129, 5-(2-aminopyridin-4-yl)-N-(5-(4-hydroxypiperidin-1-yl)-2-morpholinothiazolo[4,5-b]pyridin-6-yl)furan-2-carboxamide hydrochloride]
IC50: < 50 nM
